Three compounds from patent publication US20050000824A1, “Phosphorus-borates with low melting points” (priority 2001, published 2005) can be followed below.

What all share (type): physicochemical
Series [1] can be described thus: Determination of solubility (qualitative, mixing ionic liquid with solvent). The method, then: Solubility was determined only qualitatively by mixing approximately 0.5 ml of the ionic liquid with the same amount of organic solvent and shaking. All samples were checked a second time after several hours to ensure, that no slow phase separation had occured.
Series [2] in a line: Determination of viscosity (Brookfield Cone and Plate Viscometer). Here is the method:
Viscosity was measured using an LVDV-II Brookfield Cone and Plate Viscometer (1% accuracy, 0.2 repeatability). The sample cup of the viscometer was fitted with luer and purge fittings, so that a positive current of dry dinitrogen was maintained at all times during the measurements, thus avoiding absorption of atmospheric moisture. The sample cup was jacketed with a circulating water bath that was controlled by a circulator bath Grant LTD 6G (+0.1° C. accuracy).

A short description of series [3]: Thermal decomposition observed with melting point determination. To be noted: thermal stability.

`CCCCCCCCCCCCCC[P+](CCCCCC)(CCCCCC)CCCCCC.c1ccc2c(c1)O[B-]1(O2)Oc2ccccc2O1` [[R4P] [BBB], [(C6)3P(C14)][BBB]]: the Solubility result in series [1] (solvent acetonitrile) is “Y*”; in series [1] (solvent hexane), “N**”; in series [1] (solvent iso-propyl alcohol), “Y*”. Also, the Viscosity in series [2] (15 ° C.) stood at 6184 cP; in series [2] (20 ° C.), 3735 cP; in series [2] (25 ° C.), 2439 cP; in series [2] (30 ° C.), 1593 cP; in series [2] (35 ° C.), 1087 cP; in series [2] (40 ° C.), 739.8 cP. For the same compound, the Viscosity in series [2] (45 ° C.) was determined as 538.1 cP; in series [2] (50 ° C.) it was 386.7 cP; in series [2] (55 ° C.), 288.3 cP; in series [2] (60 ° C.), 217.2 cP; in series [2] (65 ° C.) it was 168.2 cP; in series [2] (70 ° C.), 126.3 cP. In addition, the Viscosity in series [2] (75 ° C.) is given as 100.2 cP; in series [2] (80 ° C.) it was 81.0 cP; in series [2] (85 ° C.), 65.2 cP; in series [2] (90 ° C.), 50.2 cP; in series [2] (95 ° C.), 40.91 cP. The “decomposition (temperature)” value in series [3] is “above 200 °C”.
On to `CCCCCCCCCCCCCC[P+](CCCCCC)(CCCCCC)CCCCCC.c1ccc2c(c1)O[B-]1(Oc3ccccc3-2)Oc2ccccc2-c2ccccc2O1` [[R4P] [BBPB], [(C6)3P(C14)][BBPB]], for which the Solubility result in series [1] (solvent acetonitrile) and in series [1] (solvent iso-propyl alcohol) was “Y*” throughout. The Viscosity in series [2] (5 ° C.) came to 95020 cP; in series [2] (10 ° C.), 59233 cP; in series [2] (15 ° C.), 33737 cP; in series [2] (20 ° C.), 20660 cP; in series [2] (25 ° C.) it was 12813 cP; in series [2] (30 ° C.) it was 8245 cP. Also, the Viscosity came out at 5453 cP in series [2] (35 ° C.); 3675 cP in series [2] (40 ° C.); 2703 cP in series [2] (45 ° C.); 1953 cP in series [2] (50 ° C.); 1393 cP in series [2] (55 ° C.); 1022 cP in series [2] (60 ° C.). For the same compound, the Viscosity in series [2] (65 ° C.) is recorded as 759.0 cP; in series [2] (70 ° C.), 550.7 cP; in series [2] (75 ° C.), 333.9 cP; in series [2] (80 ° C.) it was 209.2 cP; in series [2] (85 ° C.) it was 173.0 cP; in series [2] (90 ° C.), 177.8 cP.
With `CCCCCCCCCCCCCC[P+](CCCCCC)(CCCCCC)CCCCCC.O=C1O[B-]2(OC(=O)c3ccccc3O2)Oc2ccccc21` [[R4P] [BSB], [(C6)3P(C14)][BSB]], the Solubility result was “Y*” in series [1] (solvent acetonitrile) and “N**” in series [1] (solvent hexane). The Viscosity in series [2] (5 ° C.) is 7334 cP; in series [2] (10 ° C.), 4241 cP; in series [2] (15 ° C.), 2663 cP; in series [2] (20 ° C.), 1730 cP; in series [2] (25 ° C.), 1164 cP; in series [2] (30 ° C.) it was 801.4 cP. Further, the Viscosity in series [2] (35 ° C.) worked out at 566.3 cP; in series [2] (40 ° C.) it was 407.0 cP; in series [2] (45 ° C.), 300.4 cP; in series [2] (50 ° C.) it was 229.6 cP; in series [2] (55 ° C.) it was 171.4 cP; in series [2] (60 ° C.), 132.6 cP. Besides, the Viscosity in series [2] (65 ° C.) is 106.3 cP; in series [2] (70 ° C.), 85.1 cP; in series [2] (75 ° C.), 68.4 cP; in series [2] (80 ° C.), 56.4 cP; in series [2] (85 ° C.) it was 47.2 cP; in series [2] (90 ° C.), 39.9 cP. Moreover, in series [2] (95 ° C.), the Viscosity is given as 34.1 cP.
